Test results taken from US6787569B1, “Therapeutic guanidines” (Cambridge NeuroScience, Inc., priority 1994, dated 2004).
Structures can show the parent of a compound that is named as a salt.

Tested on: depolarization-induced 3H-glutamate release from brain nerve terminals
Test: Inhibition of 3H-glutamate release, high [K+] depolarization, rapid superfusion of synaptosomes
Format: biochemical
Settings: rat brain synaptosomes; for % Inhibition of ^3H-Glu Rel @ 1 μM: 1 μM compound; for % Inhibition of ^3H-Glu Rel @ 0.1 μM: 0.1 μM compound; for % Inhibition of ^3H-Glu Rel @ 0.3 μM: 0.3 μM compound; for % Inhibition of ^3H-Glu Rel @ 3 μM: 3 μM compound

Molecule | % Inhibition of ^3H-Glu Rel @ 1 μM [%] | % Inhibition of ^3H-Glu Rel @ 0.3 μM [%] | other results
CC(C)(C)c1ccc(CN(C(=N)N)c2cccc(C(C)(C)C)c2)cc1.Cl [Example 63, N-(3-tert-Butylphenyl)-N-(4-tert-butylbenzyl)guanidine.HCl] | 40 | – | –
CN(C(=N)N(C)c1ccc(C(C)(C)C)cc1)c1ccc(C(C)(C)C)cc1.Cl [Example 102, N,N′-Bis-(4-tert-butylphenyl)-N,N′-dimethylguanidine.HCl] | – | 73 | % Inhibition of ^3H-Glu Rel @ 0.1 μM: 18%
N=C(N)N(Cc1ccc(OC(F)(F)F)cc1)c1ccc2c3c(cccc13)CC2 [Example 59, N-(5-Acenaphthyl)-N-(4-trifluaromethoxybenzyl)guanidine.HCl] | 44 | – | –
Br.N=C(Nc1ccc(Oc2ccccc2)cc1)Nc1ccc(Oc2ccccc2)cc1 [Example 138, N,N′-Bis(4-phenoxyphenyl)guanidine.HBr] | – | 57 | –
N-(4-sec-Butylphenyl)-N-(4-tert-butylbenzyl)-N′-piperidinylguanidine.HCl [Example 74] | 100 | 21 | –
CCC(C)c1ccc(N(Cc2ccc(C(C)(C)C)cc2)C(=N)N(C)c2ccccc2)cc1.Cl (centres unmarked) [Example 88, N-(4-sec-Butylphenyl)-N-(4-tert-butylbenzyl)-N′-(phenyl)-N′-methylguanidine.HCl] | – | 77 | –
CCCCOc1ccc(N(Cc2ccc(C(C)(C)C)cc2)C(=N)Nc2ccccc2)cc1.Cl [Example 87, N-(4-Butoxylphenyl)-N-(4-tert-butylbenzyl)-N′-(phenyl)guanidine.HCl] | – | 36 | –
CN(C(=N)Nc1cccc(OCc2ccccc2)c1)c1ccc(OCc2ccccc2)cc1 [N-(3-benzyloxyphenyl)-N′-(4-benzyloxyphenyl)-N′-methylguanidine] | – | 55 | –
CN(C(=N)Nc1ccc(OCc2ccccc2)cc1)c1ccc(C(C)(C)C)cc1.CS(=O)(=O)O [Example 98, N-(4-Benzyloxyphenyl)-N′-methyl-N′-(4-tert-butylphenyl)guanidine.mesylate] | – | 28 | –
Cl.N=C(N)N(Cc1cccc(Oc2ccccc2)c1)c1ccc2c3c(cccc13)CC2 [Example 53, N-(5-Acenaphthyl)-N-(3-phenoxybenzyl)guanidine.HCl] | 37 | – | –
N=C(Nc1ccc(OCc2ccccc2)cc1)Nc1ccc(SCc2ccccc2)cc1 [N-(4-benzyloxyphenyl)-N′-(4-benzylthiophenyl)guanidine] | – | 81 | –
CCC(C)c1ccc(N(C)C(=N)N(Cc2ccc(C(C)(C)C)cc2)c2ccc(C(C)(C)C)cc2)cc1.Cl (centres unmarked) [Example 83, N-(4-tert-Butylphenyl)-N-(4-tert-butylbenzyl)-N′-(4-sec-butylphenyl)-N′-(methyl)guanidine.HCl] | 63 | 31 | –
CCC(C)c1ccc(N(C)C(=N)N(Cc2ccc(C(C)(C)C)cc2)c2ccc(C(C)CC)cc2)cc1.Cl (centres unmarked) [Example 84, N-(4-sec-Butylphenyl)-N-(4-tert-butylbenzyl)-N′-(4-sec-butylphenyl)-N′-(methyl)guanidine.HCl] | 37 | – | –
CC(C)(C)c1ccc(COc2cccc(NC(=N)Nc3ccc(C(C)(C)C)cc3)c2)cc1.CS(=O)(=O)O [Example 99, N-(3-(4-tert-Butylbenzyloxy)phenyl)-N′-(4-tert-butylphenyl)guanidine.mesylate] | – | 20 | –
CCC(C)c1cccc(N(Cc2ccc(C(C)(C)C)cc2)C(=N)N)c1.Cl (centres unmarked) [Example 62, N-(3-sec-Butylphenyl)-N-(4-tert-butylbenzyl)guanidine.HCl] | 22 | – | –
Br.CCC(C)c1cccc(NC(=N)Nc2cccc(C(C)CC)c2)c1 (centres unmarked) [Example 34, N,N′-Bis-(3-sec-butylphenyl)guanidine.HBr] | 63 | – | –
CCCCCCc1ccc(NC(=N)Nc2ccc(CCCCCC)cc2)cc1.CS(=O)(=O)O [Example 96, N,N′-Bis-(4-Hexylphenyl)guanidine.mesylate] | – | 54 | % Inhibition of ^3H-Glu Rel @ 0.1 μM: 54%
CCCCc1ccc(NC(=N)N(CCCC)c2ccc(CCCC)cc2)cc1.Cl [Example 105, N,N′-Bis-(4-butylphenyl)-N-butylguanidine.HCl] | – | 86 | % Inhibition of ^3H-Glu Rel @ 0.1 μM: 24%
Br.CC(C)(C)c1cccc(NC(=N)Nc2cccc(C(C)(C)C)c2)c1 [Example 31, N,N′-Di-(3-tert-butylphenyl)guanidine.HBr] | 24 | – | –
Br.N=C(Nc1cccc(-c2ccccc2)c1)Nc1cccc(-c2ccccc2)c1 [Example 30, N,N′-Bis(3-biphenyl)guanidine.HBr] | 25 | – | –
Br.CN(C(=N)N(C)c1ccc(C(C)(C)C)cc1)c1ccc(C(C)(C)C)cc1 [Example 36, N,N′-Bis(4-tert-butylphenyl)-N,N′-methylguanidine.HBr] | – | – | % Inhibition of ^3H-Glu Rel @ 1 μM (1 µM): 67%

Molecule | % Inhibition of ^3H-Glu Rel @ 1 μM [%] | % Inhibition of ^3H-Glu Rel @ 0.3 μM [%] | other results
Cl.N=C(N)N(Cc1ccc(OCc2ccccc2)cc1)c1ccc2c3c(cccc13)CC2 [Example 65, N-(5-Acenaphthyl)-N-(4-benzyloxybenzyl)guanidine.HCl] | 42 | – | –
CC(C)(C)c1ccc(CN(C(=N)N)c2cccc3ccccc23)cc1.Cl [Example 47, N-(1-Naphthyl)-N-4(tert-butylbenzyl)guanidine.HCl] | 40 | – | –
CCC(C)c1ccc(N(Cc2ccc(C(C)(C)C)cc2)C(=N)Nc2ccc(Cl)cc2)cc1.Cl (centres unmarked) [Example 86, N-(4-sec-Butylphenyl)-N-(4-tert-butylbenzyl)-N′-(4-chlorophenyl)guanidine.HCl] | – | 45 | % Inhibition of ^3H-Glu Rel @ 0.1 μM: 16%
Br.CCCCOc1cc(NC(=N)Nc2ccc(OC)c(OCCCC)c2)ccc1OC [Example 109, N,N′-Bis-((3-butoxy-4-methoxy)phenyl)guanidine.HBr] | – | 86 | –
CC(Cc1ccc(Cl)cc1)NC(=N)Nc1ccc2c3c(cccc13)CC2.Cl (centres unmarked) [Example 40, N-(5-Acenaphthyl)-N′-(1-methyl-2-(4-chlorophenyl)ethyl)guanidine.HCl] | 64 | 46 | –
CCOc1ccc(Cc2cccc(CCNC(=N)Nc3ccc(C(C)(C)C)cc3)c2)cc1.CS(=O)(=O)O [Example 97, N-(3-(1-(4′-Ethoxy)benzyl)phenethyl)-N′-(4-tert-butylphenyl)guanidine.mesylate] | – | 31 | –
CCC(C)c1ccc(N(Cc2ccc(C(C)(C)C)cc2)C(=N)N2CCC(Cc3ccccc3)CC2)cc1.CS(=O)(=O)O (centres unmarked) [Example 78] | – | 22 | –
CN(C(=N)Nc1ccc(C(C)(C)C)cc1)c1ccc(OCc2ccccc2)cc1.CS(=O)(=O)O [Example 95, N-Methyl-N-4-benzyloxyphenyl-N′-(4-tert-butylphenyl)guanidin.mesylat] | 100 | 44 | –
CCCC(Cc1ccccc1)c1cccc(NC(=N)Nc2ccc(C(C)(C)C)cc2)c1.CS(=O)(=O)O (centres unmarked) [Example 100, N-(3-(1′-Benzylbutyl)phenyl)-N′-(4-tert-butylphenyl)guanidine.mesylate] | – | 20 | –
CCCCCN(C(=N)Nc1ccc(C(C)CC)cc1)c1ccc(C(C)CC)cc1.Cl (centres unmarked) [Example 46, N,N′-(sec-Butylphenyl)-N′-(n-pentyl)guanidine.HCl] | 100 | 65 | –
CS(=O)(=O)O.N=C(Nc1ccc(N=Nc2ccccc2)cc1)Nc1cccc(OCc2ccccc2)c1 [Example 140, N-(3-Benzyloxyphenyl)-N′-(4-phenylazophenyl)guanidine.mesylate] | – | 44 | –
CCCCOc1ccc(N(Cc2ccc(C(C)(C)C)cc2)C(=N)NC2CCNCC2)cc1.Cl [Example 77, N-(4-Butoxyphenyl)-N-(4-tert-butylbenzyl)-N′-(4-piperidinyl)guanidine.HCl] | – | 44 | –
Cl.N=C(N)N(Cc1ccc(I)cc1)c1ccc2c3c(cccc13)CC2 [Example 58, N-(5-Acenaphthyl)-N-(4-iodobenzyl)guanidine.HCl] | 43 | – | –
CCCCCOc1cccc(N(Cc2ccc(C(C)(C)C)cc2)C(=N)N)c1.Cl [Example 64, N-(3-Pentoxyphenyl)-N-(4-tert-butylbenzyl)guanidine.HCl] | 41 | – | –
N-(5-Acenaphthyl)-N′-((4-tert-butylphenyl)-(4-sec-butylphenyl)-N′-methylguanidine.HCl [Example 60] | – | – | % Inhibition of ^3H-Glu Rel @ 3 μM: 32%
CCC(C)c1ccc(N(Cc2ccc(C(C)(C)C)cc2)C(=N)Nc2ccccc2)cc1.Cl (centres unmarked) [Example 85, N-(4-sec-Butylphenyl)-N-(4-tert-butylbenzyl)-N′-(phenyl)guanidine.HCl] | 100 | 55 | –
CCCCCCc1ccc(N(Cc2ccc(C(C)(C)CCC)cc2)C(=N)Nc2ccccc2)cc1.Cl [Example 90, N-(4-Hexylphenyl)-N-(4-tert-hexylbenzyl)-N′-phenylguanidine.HCl] | – | 42 | –
Cl.N=C(N)N(Cc1ccc(OCc2ccccc2)cc1)c1ccc(OCc2ccccc2)cc1 [Example 67, N-(4-Benzyloxyphenyl)-N-(4-benzyloxybenzyl)guanidine.HCl] | 36 | – | –
CN(C(=N)Nc1ccc(OCc2ccccc2)cc1)c1ccc(OCc2ccccc2)cc1.CS(=O)(=O)O [Example 132, N,N′-Bis(4-benzyloxyphenyl)-N′-methylguanidine.mesylate] | – | 22 | –
CCCCc1ccc(NC(=N)N(C)c2ccc(CCCC)cc2)cc1.Cl [Example 101, N,N′-Bis-(4-butylphenyl)-N-methylguanidine.HCl] | – | 35 | –
CS(=O)(=O)O.N=C(Nc1ccc2c3c(cccc13)CC2)N1CCCc2ccccc21 [Example 7, N-(5-Acenaphthyl)-N′-(1,2,3,4-tetrahydroquinolinyl)guanidine.mesylate] | 20 | – | % Inhibition of ^3H-Glu Rel @ 3 μM: 16%
